# According to paper PMC8752837, “Structural basis of BAK activation in mitochondrial apoptosis initiation” (Nature Communications, 2022):
# Like-named read-outs stand apart in the source and are kept apart here.
# How the values were obtained:
# GST-BAK = biological target: T1, GST-BAK (Homo sapiens, UniProt Q16611); test: Competitive fluorescence polarization assay (displacement of BID BH3 SAHB-F); assay type: binding; conditions: competitive FP
# T1 construct: made in house
# T1 sequence (Q16611 1-211): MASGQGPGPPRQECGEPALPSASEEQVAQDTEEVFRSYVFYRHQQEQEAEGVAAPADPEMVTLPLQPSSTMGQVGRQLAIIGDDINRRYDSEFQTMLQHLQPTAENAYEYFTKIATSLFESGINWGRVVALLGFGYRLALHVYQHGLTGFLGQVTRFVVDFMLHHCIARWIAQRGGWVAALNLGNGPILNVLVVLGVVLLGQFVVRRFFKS
# Text: We also tested the monosubstituted peptides in competitive fluorescence polarization (FP) binding assays, which measure displacement from GST-BAK of BID BH3 stabilized alpha helix of BCL-2 proteins (SAHB) C-terminally tagged with fluorescein and thus informs on peptide binding affinity.
# We carried out fluorescence polarization assays, measuring the displacement of the fluorescent peptide BID BH3 SAHB-F from GST-BAK, in 384-well Greiner black polystyrene plates with flat bottom (Sigma-Aldrich). Master mix consisted of 50 mM Tris-HCl pH 7.5, 50 mM KCl, 0.1 mg/mL BSA, 2 mM DTT, 0.005% Tween-20, 10 nM BID BH3 SAHB-F, and 1 µM GST-BAK. We pin transferred peptides using Biomek FX (Beckman Coulter Life Sciences, IN) to achieve final concentration of 500−0.2 µM in 20 µL final volume. We gently centrifuged plates to remove air bubbles for 1 min at 1000 rpm, and incubated them for 60 min at RT. […] Free peptide controls in each plate consisted of only BID BH3 SAHB-F and bound peptide controls containing BID BH3 SAHB-F + GST-BAK. We derived Z’-values using the equation [1 − 3(stdev^L + stdev^H)]/(average^H − average^L), where L is the free peptide control and H is the bound peptide control. […] We processed and visualized data using the software Robust Investigation of Screening Experiments (RISE) developed in house in the Pipeline Pilot platform (Accelrys, v.8.5.0). We performed at least three independent dose-response experiments for each peptide. We estimated IC50 values in RISE and GraphPad Prism v.8.0a.
# Human BAK-∆TM-His6 (BAK) = biological target: T2, Human BAK-∆TM-His6 (BAK) (Homo sapiens, UniProt Q16611); conditions: ref Moldoveanu et al NSMB (2013) 20:589; cited from earlier work
# T2 construct: C-terminus truncated recombinant human BAK containing C-terminal 6× histidine tag (MEAS-BAK); made in house; host or cells: E. coli T7 Express pLac I/Y
# T2 sequence (Q16611 1-186 limits assumed): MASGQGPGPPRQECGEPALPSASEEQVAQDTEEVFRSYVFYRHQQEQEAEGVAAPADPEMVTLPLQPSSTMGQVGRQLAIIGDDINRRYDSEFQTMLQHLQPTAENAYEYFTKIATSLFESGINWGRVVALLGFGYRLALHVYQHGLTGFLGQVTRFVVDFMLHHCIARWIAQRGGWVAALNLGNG
# Text: page 33: helix 1 to be important, and the idea that this could be achieved through somewhat different molecular interactions is neither surprising nor novel. We appreciate the reviewer’s viewpoint but respectfully disagree. We clarify the distinction between W(3)W(5) BID BH3 and BIM-h3Pc-RT inactivated complexes by explaining that stabilization of helix 1 is through indirect contacts in the former (allosteric) and through direct contact in the latter “glue-like” complex. This distinction is now discussed in the highlighted region on pg. 16 being key for the design of small molecule BH3 mimetic ...
compound,measurement,setting,value
"CC[C@H](C)[C@H](NC(=O)[C@H](CO)NC(=O)[C@H](CCCNC(=N)N)NC(=O)[C@H](CC(=O)O)NC(=O)[C@H](CCSC)NC(=O)[C@H](CO)NC(=O)[C@H](CC(=O)O)NC(=O)CNC(=O)[C@@H](NC(=O)[C@H](CCC(N)=O)NC(=O)[C@H](C)NC(=O)[C@H](CC(C)C)NC(=O)[C@H](Cc1c[nH]cn1)NC(=O)[C@H](CCCNC(=N)N)NC(=O)[C@H](C)NC(=O)[C@@H](NC(=O)[C@H](CC(N)=O)NC(=O)[C@H](CCCNC(=N)N)NC(=O)[C@@H](NC(=O)[C@@H](NC(=O)[C@H](CC(=O)O)NC(=O)[C@H](CCC(=O)O)NC(C)=O)[C@@H](C)CC)[C@@H](C)CC)[C@@H](C)CC)C(C)C)C(N)=O [WT BID BH3, reference compound]",IC50,GST-BAK; Experiment-1,12.73 µM
same,IC50,GST-BAK; Experiment-2,6.926 µM
same,IC50,GST-BAK; Experiment-3,15.45 µM
same,IC50,GST-BAK; Experiment-4,8.804 µM
same,IC50,GST-BAK; Experiment-5,11 µM
same,IC50,GST-BAK; Experiment-6,9.271 µM
same,IC50,GST-BAK; Experiment-7,11.57 µM
same,IC50,GST-BAK; Experiment-9,22.17 µM
same,IC50,"GST-BAK; mean of the experiments (replicated 4-9 times), read-out: IC50 Mean",12.2 µM
same,fold less potent than activated full-length BID (N/C BID),Human BAK-∆TM-His6 (BAK),~ 100 x
